Experimental data published in paper PMC13586308, “Cell type–selective targeting by heterobifunctional protein binders via in-cell enrichment” (Nature Communications, 2026).
Read-outs that look alike come from different tables or passages of the source.

Legend:
BRD3BD1 = target: T1, BRD3BD1 (Homo sapiens, UniProt Q15059); assay: competitive FP assay, BRD3 BD1 -/+ FKBP12; type: binding
T1 construct: to the isolated BD1 and BD2 domains of BRD2, BRD3 and BRD4

BRD4 43-463 Y390A = assay: competitive FP assay, BRD4 tandem construct Y390A; type: binding
BRD2BD1 = target: T2, BRD2BD1 (Homo sapiens, UniProt P25440); assay: competitive FP assay, BRD2 BD1 -/+ FKBP12; type: binding
T2 construct: to the isolated BD1 and BD2 domains of BRD2, BRD3 and BRD4

BRD2BD2 = BRD2BD2 (Homo sapiens, UniProt P25440); assay: competitive FP assay, BRD2 BD2 -/+ FKBP12; type: binding
BRD3BD2 = target: T3, BRD3BD2 (Homo sapiens, UniProt Q15059); assay: competitive FP assay, BRD3 BD2 -/+ FKBP12; type: binding
T3 construct: to the isolated BD1 and BD2 domains of BRD2, BRD3 and BRD4

BRD4 43-463 Y97A = assay: competitive FP assay, BRD4 tandem construct Y97A; type: binding
BRD4^BD1 = target: T4, BRD4^BD1 (Homo sapiens, UniProt O60885); assay: competitive fluorescence polarization assay, BRD4 BD1 -/+ presenter protein; type: binding; settings: for α BRD4^BD1 (binding cooperativity factor): ratio of binding in absence or presence of FKBP12
T4 construct: to the isolated BD1 and BD2 domains of BRD2, BRD3 and BRD4

BRD4^BD2 = target: T5, BRD4^BD2 (Homo sapiens, UniProt O60885); assay: competitive fluorescence polarization assay, BRD4 BD2 -/+ presenter protein; type: binding; settings: for α BRD4^BD2 (binding cooperativity factor): ratio of binding in absence or presence of FKBP12
T5 construct: to the isolated BD1 and BD2 domains of BRD2, BRD3 and BRD4

BRD4 = target: T6, BRD4 (Homo sapiens, UniProt O60885); assay: NanoBRET BRD4, transient BRD4-NanoLuc in HEK293T cells; type: cell-based; settings: intact HEK293 cells
T6 construct: full-length BRD4 fused to NanoLuc at N terminus; expressed in transfected cells; host or cells: HEK293T
Experimental: The NanoBRET assay was performed as described previously[26],[39]. To study BRD4 engagement, we employed two models: cells stably expressing BRD4-NanoLuc and cells with transient BRD4-NanoLuc expression. For stable cell lines, the coding sequence of human BRD4 (Isoform B) was fused in-frame to NanoLuc luciferase under the control of the human ubiquitin C (UbC) promoter, with left and right homology arms targeting the AAVS1 locus in intron 1 of the PPP1R12C gene to facilitate genomic integration. PC3 prostate cancer cells were transfected with this construct and vectors expressing Cas9 and an sgRNA targeting the AAVS1 locus using Lipofectamine 3000 (Invitrogen). Successful integrands were selected with blasticidin. Expression of the fusion protein was confirmed by western blot. For transient experiments, full-length BRD4 fused to NanoLuc at N terminus, was cloned into an expression plasmid and transfected into HEK293T cells using FuGENE HD (Promega, E2312), with protein expression allowed for 20 h. Serially diluted inhibitors and BRD Tracer-02 (Promega, TracerDB ID: T000022) at the Tracer KD concentration (from TracerDB)[40] were dispensed into white 384-well plates (Greiner 781207) using an ECHO 550 acoustic dispenser (Labcyte). The cells were trypsinized, resuspended in Opti-MEM without phenol red (Life Technologies), and seeded at 2 × 10^5 cells/mL. After equilibration for 2 h at 37 °C/5% CO₂ following compound treatment, the NanoBRET® NanoGlo Substrate + Extracellular NanoLuc® Inhibitor (Promega, N2162) was added according to the manufacturer’s protocol, and filtered luminescence was measured on a PHERAstar plate reader (BMG Labtech) using a donor (450 nm BP) and acceptor (610 nm LP) filter pair. Competitive displacement data were analyzed using GraphPad Prism 9 with a normalized 3-parameter curve fit: Y = 100/(1 + 10^(X − log IC₅₀)). For BRET measurements after FKBP12 knockdown in stably expressing BRD4 Nano-Luc reporter cell line, 10 nL/per well of the FKBP12 PROTAC was pipetted to each well using Labcyte to achieve the final concentration of 200 nM and the plated cells were incubated over-night at 37 °C and 5% CO2. BRET measurements were performed as outlined above.

FKBP12 [1] = target: T7, FKBP12 (Homo sapiens, UniProt P62942); assay: NanoBRET FKBP12 in intact HEK293 cells; type: cell-based
FKBP12 [2] = target: T7, FKBP12; assay: competitive fluorescence polarization assay, binding to FKBP12; settings: competitive FP assay
MYC mRNA = assay: quantitative RT-PCR of MYC mRNA, MV4-11; type: cell-based, human; settings: MV4-11
[3] = absence of FKBP12, 2 nM JQ1-FL tracer, read-out: Binding to BRD4^BD1 - FKBP12 Kd
[4] = presence of 15 µM FKBP12, read-out: Binding to BRD4^BD1 + FKBP12 Kd (converted)
[5] = presence of 15 µM FKBP12, read-out: Binding to BRD4^BD2 + FKBP12 Kd (converted)
[6] = absence of FKBP12, 2 nM JQ1-FL tracer, read-out: Binding to BRD4^BD2 - FKBP12 Kd

T7 sequence (P62942 whole entry): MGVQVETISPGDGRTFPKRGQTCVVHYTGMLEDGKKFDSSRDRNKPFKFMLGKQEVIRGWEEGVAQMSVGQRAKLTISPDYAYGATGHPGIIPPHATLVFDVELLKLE
T2 sequence (P25440 74-180 limits assumed): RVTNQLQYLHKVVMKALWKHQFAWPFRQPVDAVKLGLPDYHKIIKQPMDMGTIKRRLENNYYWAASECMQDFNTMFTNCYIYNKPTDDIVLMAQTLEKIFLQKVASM
Chain of BRD2BD2 (P25440 344-453 limits assumed): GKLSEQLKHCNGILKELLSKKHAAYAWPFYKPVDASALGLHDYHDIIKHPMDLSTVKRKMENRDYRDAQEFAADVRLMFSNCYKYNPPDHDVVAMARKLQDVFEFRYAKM
T3 sequence (Q15059 306-415 limits assumed): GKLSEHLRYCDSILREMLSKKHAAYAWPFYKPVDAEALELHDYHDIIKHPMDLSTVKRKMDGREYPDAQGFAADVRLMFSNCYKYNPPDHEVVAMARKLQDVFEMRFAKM
T1 sequence (Q15059 34-140 limits assumed): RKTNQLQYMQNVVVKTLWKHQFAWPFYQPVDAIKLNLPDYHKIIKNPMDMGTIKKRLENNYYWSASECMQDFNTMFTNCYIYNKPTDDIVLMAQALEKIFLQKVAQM

Compound | α BRD3BD1 (BRD3BD1) | α BRD4 43-463 Y390A (BRD4 43-463 Y390A) | α BRD2BD1 (BRD2BD1) | α BRD2BD2 (BRD2BD2) | α BRD3BD2 (BRD3BD2) | α BRD4 43-463 Y97A (BRD4 43-463 Y97A) | Kd (BRD4^BD1; [3]) | Kd (BRD4^BD1; [4]) | α BRD4^BD1 (binding cooperativity factor) (BRD4^BD1) | Kd (BRD4^BD2; [5]) | α BRD4^BD2 (binding cooperativity factor) (BRD4^BD2) | IC50 (BRD4) | IC50 (FKBP12 [1]) | Kd (FKBP12 [2]) | Kd (BRD4^BD2; [6]) | nanoBRET BRD4 IC50 (BRD4) | effect of CD36 inhibitor on myc repression upon a1dj treatment (MYC mRNA)
Cc1sc2c(c1C)C(c1ccc(Cl)cc1)=N[C@@H](CC(=O)OC(C)(C)C)c1nnc(C)n1-2 [JQ1, (+)-JQ1, reference compound] | 1.0 | 1.0 | 1.0 | 1.0 | 1.0 | 1.2 | – | – | – | – | – | – | – | – | – | – | –
Cc1sc2c(c1C)C(c1ccc(Cl)cc1)=NC(CC(=O)N1CCN(CCCn3cc(COCC4CN(Cc5ccccn5)C(=O)C5CCCC4N5S(=O)(=O)c4cc(Cl)cc(Cl)c4)nn3)CC1)c1nnc(C)n1-2 (stereo not shown) [a5d] | – | – | – | – | – | – | 740 ± 100 nM | 300 ± 50 nM | 2.5 | 600 ± 100 nM | 1.8 | 1080 nM | 93 nM | 1.2 nM | – | – | –
Cc1sc2c(c1C)C(c1ccc(Cl)cc1)=NC(CC(=O)N1CCC(N3CCC(Cn4cc(C5CN(Cc6ccccn6)C(=O)C6CCCC5N6S(=O)(=O)c5cc(Cl)cc(Cl)c5)nn4)CC3)CC1)c1nnc(C)n1-2 (stereo not shown) [a10c] | – | – | – | – | – | – | 120 ± 30 nM | 900 ± 100 nM | 0.1 | – | – | 497 nM | 288 nM | 0.3 nM | 170 ± 30 nM | – | –
Cc1sc2c(c1C)C(c1ccc(Cl)cc1)=NC(CC(=O)NCCOCCn1cc(COCC3CN(CC(=O)N4CCC(C)CC4)C(=O)C4CCCC3N4S(=O)(=O)c3cc(Cl)cc(Cl)c3)nn1)c1nnc(C)n1-2 (stereo not shown) [a1dk] | – | – | – | – | – | – | 520 ± 90 nM | 200 ± 40 nM | 2.6 | 800 ± 100 nM | 0.4 | 1190 nM | 9.1 nM | 0.47 nM | 320 ± 60 nM | – | –
Cc1sc2c(c1C)C(c1ccc(C#CCNC(=O)COCCn3cc(COCC4CN(Cc5ccccn5)C(=O)C5CCCC4N5S(=O)(=O)c4cc(Cl)cc(Cl)c4)nn3)cc1)=NC(CC(=O)OC(C)(C)C)c1nnc(C)n1-2 (stereo not shown) [b3d] | – | – | – | – | – | – | 68 ± 9 nM | 200 ± 30 nM | 0.3 | – | 0.1 | 266 nM | 15 nM | 1 nM | 110 ± 30 nM | – | –
Cc1sc2c(c1C)C(c1ccc(Cl)cc1)=NC(CC(=O)N1CC(CN3CCC(n4cc(C5CN(Cc6ccccn6)C(=O)C6CCCC5N6S(=O)(=O)c5cc(Cl)cc(Cl)c5)nn4)CC3)C1)c1nnc(C)n1-2 (stereo not shown) [a11c] | – | – | – | – | – | – | – | 190 ± 30 nM | 5.3 | 450 ± 70 nM | 4.7 | 1230 nM | 218 nM | 0.7 nM | – | – | –
Cc1sc2c(c1C)C(c1ccc(Cl)cc1)=NC(CC(=O)N1CCC(CN3CCC(Cn4cc(COCC5CN(Cc6ccccn6)C(=O)C6CCCC5N6S(=O)(=O)c5cc(Cl)cc(Cl)c5)nn4)CC3)CC1)c1nnc(C)n1-2 (stereo not shown) [a8d] | – | – | – | – | – | – | 160 ± 30 nM | 84 ± 16 nM | 1.9 | 120 ± 30 nM | 1 | 357 nM | 228 nM | 1.8 nM | 130 ± 30 nM | – | –
Cc1sc2c(c1C)C(c1ccc(Cl)cc1)=NC(CC(=O)N1CCC(CN3CCC(n4cc(C5CN(Cc6ccccn6)C(=O)C6CCCC5N6S(=O)(=O)c5cc(Cl)cc(Cl)c5)nn4)CC3)CC1)c1nnc(C)n1-2 (stereo not shown) [a7c] | – | – | – | – | – | – | 520 ± 80 nM | 180 ± 30 nM | 2.9 | 900 ± 200 nM | 0.8 | 665 nM | 138 nM | 3.5 nM | 700 ± 100 nM | – | –
Cc1sc2c(c1C)C(c1ccc(Cl)cc1)=NC(CC(=O)N1CCC(N3CCC(Cn4cc(COCC5CN(Cc6ccccn6)C(=O)C6CCCC5N6S(=O)(=O)c5cc(Cl)cc(Cl)c5)nn4)CC3)CC1)c1nnc(C)n1-2 (stereo not shown) [a10d] | – | – | – | – | – | – | 140 ± 30 nM | 100 ± 30 nM | 1.4 | 80 ± 20 nM | 2.1 | – | 241 nM | 1.6 nM | 170 ± 30 nM | none | –
Cc1sc2c(c1C)C(c1ccc(Cl)cc1)=NC(CC(=O)NCCOCCn1cc(COC(C)C3CN(Cc4ccccn4)C(=O)C4CCCC3N4S(=O)(=O)c3cc(Cl)cc(Cl)c3)nn1)c1nnc(C)n1-2 (stereo not shown) [a1f] | – | – | – | – | – | – | 180 ± 20 nM | 140 ± 14 nM | 1.3 | 230 ± 30 nM | 0.2 | 560 nM | 24 nM | 1.6 nM | 50 ± 14 nM | – | –
CCCCCCCC/C=C\CCCCCCCC(=O)ON1C(=O)CC(S(=O)(=O)O)C1=O (stereo not shown) [sulfosuccinimidyl oleate (SSO), sulfosuccinimidyl oleate, reference compound] | – | – | – | – | – | – | – | – | – | – | – | – | – | – | – | – | did not observe any effect
